Measurements reported in US8828994B2, “Di- and tri-substituted oxathiazine derivatives, method for the production thereof, use thereof as medicine and drug containing said derivatives and use thereof” (SANOFI, priority 2011, dated 2014).

Biological target: human 11β-HSD1 microsome fraction (Homo sapiens, UniProt P28845)
Assay: Enzymatic 11beta-HSD1 test (SPA-based detection)
Type: biochemical
Details: [1,2-3H]-cortisone, NADPH, 37° C., 1 hour, read-out: IC50 (nM), biological activity
Method: First of all, 20 μl of the human 11β-HSD1 microsome fraction (0.2 μg of protein), prepared in 50 mM HEPES, 0.1% BSA (w/v), were applied to a plate with 384 wells. The test compounds (0.09 μl) were applied to the assay plate in 100% DMSO. The reaction was started by addition of 20 μl of [1,2-^3H]-cortisone (0.1 μCi/[…]) in assay buffer comprising 25 mM HEPES, 100 mM KCl, 5 mM NaCl, 2 mM MgCl2 and 0.25 mM NADPH. The plate was agitated at 37° C. for 1 hour. At the same time, a stop solution comprising 20 mg/ml SPA-PVT beads, 1.6 mg/ml monoclonal cortisol antibody and 0.01 mM SSR110887 (inhibitor from the Biovitrium patent) in 50 mM HEPES, 1 M NaCl and 1 M KCl was stirred at room temperature. To stop the reaction, 25 μl of the stop solution were added to each well. The plate was agitated gently at room temperature for 1 further hour and then centrifuged at 500 gav for 1 min, in order that the SPA beads could settle out. […] The comparative compound was glycyrrhetinic acid.
Protein and radioactive substrate were dispensed with a Biomek FX unit (Beckman Coulter) for handling liquids. The test compounds were added with a Cybi-Well equipped with a 90 n1 pin tool (CyBio).
Lit.: Solly S, Mundt S S, Zokian H J, Juy-Fang Ding G, Hermanowski-Vosatka A, Strulovici B and Zheng W. High-throughput screening of 11β-Hydroxysteroid dehydrogenase type 1 in scintillation proximity format.

human 11β-HSD1 microsome fraction, sequence (P28845 whole entry): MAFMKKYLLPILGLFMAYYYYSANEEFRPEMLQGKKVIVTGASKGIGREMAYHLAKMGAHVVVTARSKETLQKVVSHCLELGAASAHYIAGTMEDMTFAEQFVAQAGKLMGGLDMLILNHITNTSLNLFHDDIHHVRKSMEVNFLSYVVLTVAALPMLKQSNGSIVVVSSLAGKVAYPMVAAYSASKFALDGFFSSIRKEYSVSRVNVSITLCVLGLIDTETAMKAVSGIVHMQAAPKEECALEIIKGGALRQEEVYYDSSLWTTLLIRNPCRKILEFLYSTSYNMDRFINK

SMILES	IC50 [nM]
O=S1(=O)N=C(NC2CCCCC2)OC(c2ccccc2)C12CC2 (centres unmarked) [Example 1, Cyclohexyl-(4,4-dioxo-8-phenyl-7-oxa-4lambda6-thia-5-aza-spiro[2.5]oct-5-en-6-yl)-amine]	355
CC(C)C1OC(NC2CCCCC2)=NS(=O)(=O)C12CC2 (centres unmarked) [Example 3, Cyclohexyl-(8-isopropyl-4,4-dioxo-7-oxa-4lambda6-thia-5-aza-spiro[2.5]oct-5-en-6-yl)-amine]	629
CCCC1OC(NC2CCCCC2)=NS(=O)(=O)C12CC2 (centres unmarked) [Example 4, Cyclohexyl-(4,4-dioxo-8-propyl-7-oxa-4lambda6-thia-5-aza-spiro[2.5]oct-5-en-6-yl)-amine]	518
CC(C)(C)C1OC(NC2CCCCC2)=NS(=O)(=O)C12CC2 (centres unmarked) [Example 5, (8-tert-Butyl-4,4-dioxo-7-oxa-4lambda6-thia-5-aza-spiro[2.5]oct-5-en-6-yl)-cyclohexyl-amine]	438
CC1OC(NC2CCCCC2)=NS(=O)(=O)C12CC2 (centres unmarked) [Example 6, Cyclohexyl-(8-methyl-4,4-dioxo-7-oxa-4lambda6-thia-5-aza-spiro[2.5]oct-5-en-6-yl)-amine]	598
